Measurements reported in publication PMC4962987, “Identification of Chalcones as Fasciola hepatica Cathepsin L Inhibitors Using a Comprehensive Experimental and Computational Approach” (PLoS Neglected Tropical Diseases, 2016).

What was measured:
FhCL1 [1] = molecular target: T1, FhCL1 (Fasciola hepatica, UniProt Q7JNQ9); experiment: biochemical; design: fluorogenic peptide-AMC hydrolysis (Z-VLK-AMC FhCL1, Tos-GPR-AMC FhCL3), initial rates, 5 min preincubation
T1 construct: gene CL1
T1 sequence (Q7JNQ9 108-326): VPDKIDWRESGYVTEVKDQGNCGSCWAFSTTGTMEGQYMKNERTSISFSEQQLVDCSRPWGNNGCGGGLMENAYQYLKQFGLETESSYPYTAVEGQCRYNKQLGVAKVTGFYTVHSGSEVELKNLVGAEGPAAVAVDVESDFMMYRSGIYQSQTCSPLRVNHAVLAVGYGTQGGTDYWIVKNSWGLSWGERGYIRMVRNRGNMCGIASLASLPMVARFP
Protocol: (§1) A 10 mM stock of each evaluated compound was prepared in dimethylsulfoxide (DMSO). Enzyme activity assays were conducted to evaluate the inhibitory capacity of the different compounds. FhCL1 and FhCL3 were used at nanomolar concentrations to measure initial rates during the first 10 min of the assay and compounds were tested at a moderate fixed dose of 10 μM. Briefly, each enzyme and compound were preincubated 5 minutes in a 96-well plate in 0.1M sodium phosphate buffer pH 6, 1 mM DTT and 1 mM EDTA at room temperature. The reaction was initiated by the addition of 20 μM of substrate, a synthetic peptide conjugated to the fluorophore 7-amino-4-methylcoumarin (AMC). Enzyme activity was measured by the increase in AMC fluorescence as peptide substrates were hydrolyzed (Z-VLK-AMC for FhCL1 and Tos-GPR-AMC for FhCL3) at an excitation wavelength of 340 nm and emission wavelength of 440 nm using a spectrofluorometer (Varioskan Thermo). Enzyme activity was expressed as RFU/s (relative fluorescence units of AMC released per unit of time). Each compound was tested in duplicate. A progress curve without enzyme was performed to control for non-catalyzed reactions between substrates and inhibitors and a spectrum from 300 to 450 nm wavelength was done for each inhibitor to verify that none of the compounds has optical activity in the measurement range. The percentage of enzyme inhibition was calculated as: 100 - (vi/vo) x 100, where vi and vo correspond to the initial rate of AMC fluorescence increase (RFU/s) with and without inhibitor, respectively. We evaluated forty flavonoids from three structural clusters of our own chemistry library as inhibitors of FhCL1 and FhCL3. Cluster I contained twenty-six chalcones modified in ring B (C1-C26, Fig 1A), cluster II contained naphtolchalcone derivatives (C27-C35, Fig 1B) and cluster III was composed of flavones modified in ring B (C36-C40, Fig 1B). Initially, we screened the compounds at a low concentration of 10 μM measuring initial rates during the first 10 min, finding activities ranging from 0% to 75% enzyme inhibition (Fig 1).

FhCL3 [2] = molecular target: T2, FhCL3 (Fasciola hepatica, UniProt B3TM67); experiment: biochemical; design: fluorogenic peptide-AMC hydrolysis (Z-VLK-AMC FhCL1, Tos-GPR-AMC FhCL3), initial rates, 5 min preincubation; conditions: read-out: % inh. FhCL3
T2 construct: gene CL3
T2 sequence (B3TM67 88-306): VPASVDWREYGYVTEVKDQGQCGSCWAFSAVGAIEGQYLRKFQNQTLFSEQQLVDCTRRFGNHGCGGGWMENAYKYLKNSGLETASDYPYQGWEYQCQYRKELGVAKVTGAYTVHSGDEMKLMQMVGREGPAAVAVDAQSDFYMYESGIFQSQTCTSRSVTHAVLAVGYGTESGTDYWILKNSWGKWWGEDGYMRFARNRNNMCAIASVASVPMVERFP
Protocol: as §1

FhCL1 [3] = molecular target: T3, FhCL1 (Fasciola hepatica, UniProt Q7JNQ9); experiment: fluorogenic Z-VLK-AMC enzyme assay, % inhibition at […]; assay type: biochemical
T3 construct: gene CL1

FhCL3 [4] = molecular target: T4, FhCL3 (Fasciola hepatica, UniProt B3TM67); experiment: fluorogenic Tos-GPR-AMC enzyme assay, % inhibition at […]; assay type: biochemical
T4 construct: gene CL3

FhCL1 [5] = molecular target: T3, FhCL1; experiment: biochemical; design: fluorogenic peptide-AMC hydrolysis (Z-VLK-AMC FhCL1, Tos-GPR-AMC FhCL3), initial rates, 5 min preincubation; remark: listed apart in the source
Protocol: as §1

FhCL3 [6] = molecular target: T4, FhCL3; experiment: biochemical; design: fluorogenic peptide-AMC hydrolysis (Z-VLK-AMC FhCL1, Tos-GPR-AMC FhCL3), initial rates, 5 min preincubation; conditions: read-out: % inh. FhCL3; remark: listed apart in the source
Protocol: as §1

`O=c1cc(-c2ccccc2)oc2ccccc12` [C36] was tested, and the inhibition at 10 µM (FhCL1 [1]) was 5 ± 1% and the inhibition at 10 µM (FhCL3 [2]) was 8 ± 4%.
`O=C(/C=C/c1ccc(Cl)cc1)c1ccccc1O` [C10] showed an inhibition at 10 µM (FhCL1 [3]) of 63%.
Compound `O=c1cc(-c2ccc(Cl)cc2)oc2ccccc12` [C37] has an inhibition at 10 µM (FhCL1 [1]) of 0% and an inhibition at 10 µM (FhCL3 [2]) of 17 ± 1%.
With `O=C(/C=C/c1ccc2ccccc2c1)c1c(O)ccc2ccccc12` [C35] the inhibition at 10 µM (FhCL1 [3]) was greater than 50%, the inhibition at 10 µM (FhCL3 [4]) was greater than 50% and the inhibition at 10 µM (FhCL1 [1]) was 67 ± 3%. It also gave an inhibition at 10 µM (FhCL3 [2]) of 44 ± 6%.
`O=c1c(O)c(-c2ccc(O)c(O)c2)oc2cc(O)cc(O)c12` [C40, Quercetin] gave an inhibition at 10 µM (FhCL1 [5]) of 15 ± 8% and an inhibition at 10 µM (FhCL3 [6]) of 8 ± 1%.
With `O=C(/C=C/c1cccs1)c1ccccc1O` [C24] the inhibition at 10 µM (FhCL1 [1]) was 52 ± 5% and the inhibition at 10 µM (FhCL3 [2]) was 9 ± 11%.
`O=C(/C=C/c1cccc2ccccc12)c1ccccc1` [C28] gave an inhibition at 10 µM (FhCL1 [1]) of 38 ± 3% and an inhibition at 10 µM (FhCL3 [2]) of 39 ± 5%.
For `O=c1cc(-c2ccc(Br)cc2)oc2ccccc12` [C38], the inhibition at 10 µM (FhCL1 [1]) was 21 ± 10% and the inhibition at 10 µM (FhCL3 [2]) was 19 ± 3%.
In the case of `O=C(/C=C/c1ccc2ccccc2c1)c1ccccc1` [C30], the inhibition at 10 µM (FhCL1 [1]) is reported as 62 ± 2% and the inhibition at 10 µM (FhCL3 [2]) is reported as 38 ± 7%.
In the case of `O=C(/C=C/c1ccco1)c1ccccc1O` [C23], the inhibition at 10 µM (FhCL1 [1]) is reported as 57 ± 8% and the inhibition at 10 µM (FhCL3 [2]) is reported as 4 ± 10%.
With `O=C(/C=C/c1cccc2ccccc12)c1c(O)ccc2ccccc12` [C34] the inhibition at 10 µM (FhCL1 [5]) was 75 ± 4% and the inhibition at 10 µM (FhCL3 [6]) was 65 ± 6%.
In the case of `O=C(/C=C/c1ccc2ccccc2c1)c1ccccc1O` [C31], the inhibition at 10 µM (FhCL1 [1]) is reported as 61 ± 2% and the inhibition at 10 µM (FhCL3 [2]) is reported as 41 ± 5%.
`O=C(/C=C/c1cccc2ccccc12)c1ccccc1O` [C32] gave an inhibition at 10 µM (FhCL1 [1]) of 42 ± 6% and an inhibition at 10 µM (FhCL3 [2]) of 32 ± 8%.
`O=C(CC(CC(=O)c1ccccc1)c1cccc2ccccc12)c1ccccc1` [C29] showed an inhibition at 10 µM (FhCL1 [1]) of 17 ± 9% and an inhibition at 10 µM (FhCL3 [2]) of 27 ± 2%.
For `COc1ccc(-c2cc(=O)c3ccccc3o2)cc1` [C39], the inhibition at 10 µM (FhCL1 [1]) was 20 ± 7% and the inhibition at 10 µM (FhCL3 [2]) was 0%.
`O=C(/C=C/c1ccccc1)c1ccc2ccccc2c1` [C27] was tested, and the inhibition at 10 µM (FhCL1 [3]) was 65% and the inhibition at 10 µM (FhCL3 [2]) was 13 ± 4%.
In the case of `O=C(/C=C/c1ccccn1)c1ccccc1O` [C22], the inhibition at 10 µM (FhCL1 [1]) is reported as 54 ± 7% and the inhibition at 10 µM (FhCL3 [2]) is reported as 0%.
`O=C(/C=C/c1ccc2ccccc2c1)c1ccc2ccccc2c1O` [C33] showed an inhibition at 10 µM (FhCL1 [1]) of 65 ± 6% and an inhibition at 10 µM (FhCL3 [2]) of 29 ± 5%.
